# Data reported in patent publication US12263139B2, “Use of cannabidiol in the treatment of tuberous sclerosis complex” (Jazz Pharmaceuticals Research UK Limited, priority 2017, dated 2025).
# What was measured:
# [1] = system: Tsc2−/− Mouse Embryonic Fibroblast (MEF) cell lines; experiment: Wound healing assay in Tsc2−/− MEFs; format: cell-based; details: CBD at 10 and 20 μM; FIG. 1 (A)
# Procedure: (ii) Tsc2−/− p53−/− and Tsc2+/+p53−/− mouse embryonic fibroblast (MEF) cell lines (now referred to as Tsc2−/− and Tsc2+/+, respectively).
# (§1) Tsc2−/− and Tsc2+/+ cell lines were cultured and maintained in DMEM supplemented with 10% (v/v) FBS and 1% (v/v) penicillin-streptomycin in a humidified incubator (5% CO2 at 37° C.). The AML −/− cell lines were cultured and maintained in DMEM supplemented with 15% (v/v) FBS and 1% (v/v) penicillin-streptomycin in a humidified incubator (5% CO2 at 37° C.). For hypoxia, cells were put into a Binder CB150 hypoxic chamber set at 1% 02 for the indicated time points
# The stock concentration of CBD was made to 20 mM in dimethyl sulfoxide (DMSO). […] The final concentration of the DMSO in the cell culture medium was at a maximum level of 0.05% (v/v).
# Cells were seeded in 60 mm plates and left to reach 100% confluency. Cells were then synchronised in 1% (v/v) FBS DMEM for 24 h and “wounded” with a pipette tip. Dead cells were removed with PBS wash and then subsequently replaced with DMEM (10% (v/v) FBS). Cells were pre-treated for 30 min with either rapamycin, c-MET or STAT3 inhibitors (where indicated) before cytokine stimulation. Pictures were taken before treatment and 12-18 h after treatment using an inverted AMG EVOS microscope equipped with an Olympus camera.
# [2] = system: mTORC1 signalling (rpS6 phosphorylation); experiment: Western blot of rpS6 phosphorylation (mTORC1 signalling) in Tsc2−/− MEFs; format: cell-based, mouse; details: CBD at 5 μM, 6 h of treatment
# Procedure: (§2) Cells were washed in Phosphate Buffered Saline (PBS) and then lysed directly in sample buffer (62.5 mM Tris HCL, 50 mM DTT, 2% SDS (w/v), 10% Glycerol (w/v), 0.1% Bromophenol blue (w/v) pH 7.6) and sonicated for 5×20 s cycles on full power (30 amplitude microns). Samples were boiled at 95° C. for 10 min. Lysates were resolved by SDS-PAGE and proteins were transferred to polyvinylidene difluoride membranes.
# (§3) Membranes were blocked in 5% (w/v) dry milk powder dissolved in Tris-buffered saline containing 0.1% (v/v) Tween, then probed with primary antibody and horse radish peroxidase-conjugated secondary antibody. Proteins were visualized using Enhanced Chemiluminescent solution and Hyperfilm. Antibodies towards ribosomal protein S6 (rpS6), phospho-rpS6 (Ser235/236) were purchased from Cell Signaling Technology. Anti-HIF-1α was obtained from BD transduction laboratories. Statistical Analysis
# Western blotting was carried out to determine whether CBD could impair mTORC1 signalling (using rpS6 phosphorylation as a readout of mTORC1 signalling).
# HIF-1α protein = experiment: Western blot of hypoxia induced HIF-1α in AML 621-101; format: cell-based; details: CBD at 10 μM
# Procedure: as §1, §2
# as §3, with “Analysis […]” for “Analysis”
# pS6 positive cells = experiment: Number of pS6 positive cells in zebrafish model of TSC; format: in vivo; details: for effect on average number of pS6 positive cells: Danieau's incubated
# Source text: A zebrafish model of TSC with a tsc2 gene deletion was used. This model has been previously published and validated (Kim et al. 2011). By mating the gene deletion animals with wild-type tsc2+/+ animals, heterozygote (tsc2+/−) zebrafish were also obtained and tested in this example.
# For both pS6 and TUNEL staining, non-consecutive sections were imaged using a Zeiss AxioImager microscope. Exposure time was kept constant during image acquisition and determined by the observation of a slide where primary antibody or enzyme solution was omitted. Pictures were taken with a 20× objective, using the AxioVision software, and coloured using Fiji ImageJ. All counting and measuring of cells was done in the original black and white pictures.
# Statistical analysis was performed in SPSS (IBM SPSS Statistics 22), except for the chi-square test, which was done using GraphPad Prism 5. Normality and sphericity were tested using the Kolmogorov-Smirnov and Mauchly's tests, respectively. Repeated measures two-way ANOVA tests were used to analyse the locomotor assay data and cell number, while a three-way ANOVA test was used to analyse cell size. Touch response (TR) between genotypes and treatments was analysed by chi-square test. Tests were followed by Tukey or Bonferroni post-hoc tests.
# To explore mTOR pathway activation in the different genotypes and treatments, immunohistochemistry was performed using a pS6 (Ser235/236) antibody.
# To better understand the apparent differences between groups, pS6 positive cells were counted for each genotype and treatment. A significant main effect of genotype was found, with tsc2−/− zebrafish sections showing more pS6 positive cells in the brain than tsc2+/+ and tsc2+/−(+173.3%) (FIG. 4A).
# Miapaca cells = experiment: MTT cell viability assay in Miapaca; format: cell-based; details: Homo sapiens, MIA PaCa-2, 72 h, FIG. 6B, read-out: concentration at which 50% growth inhibition was reached
# Procedure: MIAPACA is a Homo sapiens pancreas carcinoma. This is a hypotriploid human cell line.
# Cell viability was analyzed by the MTT [3-(4,5-dimethylthiazol-2-yl)-2,5-diphenyl tetrazolium bromide] assay. Pancreatic cancer cells were seeded onto each well of a 96-well plate. After 72 h of treatment with CBD, MTT solution 5 mg/ml in PBS was added to each well. The plates were then incubated at 37° C. for an additional 4 h to allow MTT to form formazan crystals by reacting with metabolically active cells. The formazan crystals were solubilized in a 1N isopropanol/HCl 10% solution at 37° C., on a shaking table for 20 min. The absorbance values of the solution in each well were measured at 570 nm using a microplate reader. Cell viability was determined by the formula: cell viability (%)=(absorbance of the treated wells−absorbance of the blank control wells)/(absorbance of the negative control wells−absorbance of the blank control wells)×100%. All MTT experiments were performed in triplicate and repeated at least three times.
# [3] = treatment resistant paediatric epilepsy; cited from earlier work
# [4] = TSC patients having focal onset seizures; cited from earlier work
smiles,measurement,setting,value
"C=C(C)[C@@H]1CCC(C)=C[C@H]1c1c(O)cc(CCCCC)cc1O [CBD, Cannabidiol]",block of wound closure,[1],as effective as rapamycin
same,rpS6 phosphorylation,[2],inhibited rpS6 phosphorylation
same,hypoxia induced expression of HIF-1α protein,HIF-1α protein,sufficient to block hypoxia induced expression of HIF-1α protein
same,change in average number of pS6 positive cells,"pS6 positive cells; main effect of treatment, compared to DMSO group, FIG. 4B",−77.1%
same,change in average number of pS6 positive cells,"pS6 positive cells; main effect of treatment, compared to Danieau's group, FIG. 4B",−63.2%
same,effect on average number of pS6 positive cells,pS6 positive cells; tsc2+/+ zebrafish,no significant effect
same,effect on average number of pS6 positive cells,pS6 positive cells; tsc2+/− zebrafish,no significant effect
same,change in average number of pS6 positive cells,"pS6 positive cells; tsc2−/− zebrafish, for the DMSO group, FIG. 4C",−58.9%
same,change in average number of pS6 positive cells,"pS6 positive cells; tsc2−/− zebrafish, for the Danieau's group, FIG. 4C",−55.4%
same,IC50,Miapaca cells,15 µM
same,seizure frequency,[3],significant reductions in seizure frequency
same,treatment of refractory epilepsy,[4],beneficial
